# Read-outs that look alike come from different tables or passages of the source.
# Test system: MSSA ATCC 25923
# Experiment: Disk diffusion assay (zone of inhibition)
# Type: cell-based, Staphylococcus aureus
# Conditions: Staphylococcus aureus; for zone of inhibition at 12.5 µg/disc: 12.5 μg in 4% P80/Span 80 (1:1); for zone of inhibition at 100 µg/disc: 100 μg in 4% P80/Span 80 (1:1); for zone of inhibition at 200 µg/disc: 200 μg in 4% P80/Span 80 (1:1); for zone of inhibition at 270 µg/disc: 270 μg
# Text: The study was designed to identify conditions that improve oritavancin diffusion in agar and consequently yield a zone diameter ≧15 mm for the CLSI quality control strain MSSA ATCC 25923. Excipients that increased the disk diffusion of oritavancin in agar relative to disks containing only oritavancin were identified and selected for further study. […] A prediffusion step at room temperature was introduced to maximize oritavancin diffusion prior to initiation of bacterial growth. In this step, the antimicrobial disks were placed on agar plates seeded with a bacterial isolate and incubated at room temperature for 3 hours. Plates were then incubated overnight at 37° C. Zone diameters around the disks in which bacterial growth was inhibited were measured with a ruler and reported in millimeters.
# Ethanol-sterilized Whatman paper disks (6 mm diameter) were allowed to dry then impregnated with 20 microliters of oritavancin solution containing total amounts ranging from 90 to 360 micrograms. Disks were allowed to dry at room temperature for various times prior to use.
# Bacterial suspensions were prepared and adjusted to an optical density of 0.1 at 600 nm. […] The plate was swabbed a second time, perpendicular to the orientation of the first swab. To assess the impact of prediffusion on diameter of inhibition zones, two disks were immediately placed on one half of the plate and the plate was incubated for 3 hours at room temperature. After 3 hours, two additional disks were placed on the other half of the plate then the plate was incubated overnight at 37° C. Zone diameters were measured with a ruler and reported in millimeters. […]
# Oritavancin powder was dissolved in freshly-prepared solutions of the indicated excipients at concentrations of 0.625, 1.25, 2.5, 5, and 10 mg/ml (adjusted for potency based on lot 875561L00 purity of 83.1%) by vortexing for a minimum of 5 minutes. Oritavancin solutions in the various excipients, while not visually clear, were free from any apparent particulates as assessed visually. Sterile Oxoid blank disks were impregnated with 20 μl of these oritavancin solutions, resulting in oritavancin disk loads ranging from 12.5 to 200 μg. Unless indicated otherwise, disks were allowed to dry overnight at room temperature prior to use.
# […] Swabbing was continued at a right angle and then at an oblique angle to the first and second swabs. Disks were placed upon the seeded plates with sterile forceps. Plates were then incubated overnight at 37° C. and inhibition zone diameters were measured with a ruler and reported in millimeters.
# [1] = read-out: Inhibition zone diameter, 25923, calcium alginate swab, dried overnight
# [2] = read-out: Inhibition zone diameter, 25923, cotton swab, dried overnight, estimate of diameter
structure (smiles),measurement,setting,value
"CN[C@H](CC(C)C)C(=O)N[C@H]1C(=O)N[C@@H](CC(N)=O)C(=O)N[C@H]2C(=O)N[C@H]3C(=O)N[C@H](C(=O)N[C@H](C(=O)O)c4cc(O)cc(O)c4-c4cc3ccc4O)[C@H](O[C@H]3C[C@](C)(N)[C@@H](O)[C@H](C)O3)c3ccc(c(Cl)c3)Oc3cc2cc(c3O[C@@H]2O[C@H](CO)[C@@H](O)[C@H](O)[C@H]2O[C@H]2C[C@](C)(NCc3ccc(-c4ccc(Cl)cc4)cc3)[C@@H](O)[C@H](C)O2)Oc2ccc(cc2Cl)[C@H]1O [oritavancin, N-(4-(4-chlorophenyl)benzyl)A82846B]",zone of inhibition at 180 µg/disc,"read-out: Average zone diameter, MSSA ATCC 25923, 180 μg oritavancin in 0.002% P80, CAMHA containing 1% P80, prediffusion",13 mm
same,zone of inhibition at 360 µg/disc,"read-out: Average zone diameter, MSSA ATCC 25923, 360 μg oritavancin in 0.002% P80, CAMHA containing 1% P80, no prediffusion",12.8 mm
same,zone of inhibition at 360 µg/disc,"read-out: Average zone diameter, MSSA ATCC 25923, 360 μg oritavancin in 0.002% P80, CAMHA containing 1% P80, prediffusion",12.5 mm
same,zone of inhibition at 12.5 µg/disc,[1],20 mm
same,zone of inhibition at 12.5 µg/disc,[2],27 mm
same,zone of inhibition at 25 µg/disc,"read-out: Inhibition zone diameter, 25923, 25 μg in 4% P80/Span 80 (1:1), cotton swab (Table 14), dried overnight, estimate of diameter",30 mm
same,zone of inhibition at 50 µg/disc,"read-out: Inhibition zone diameter, 25923, 50 μg in 4% P80/Span 80 (1:1), calcium alginate swab, dried overnight",19 mm
same,zone of inhibition at 50 µg/disc,"read-out: Inhibition zone diameter, 25923, 50 μg in 4% P80/Span 80 (1:1), cotton swab, dried overnight, estimate of diameter",24 mm
same,zone of inhibition at 100 µg/disc,[1],14 mm
same,zone of inhibition at 100 µg/disc,[2],21 mm
same,zone of inhibition at 200 µg/disc,[1],11 mm
same,zone of inhibition at 200 µg/disc,[2],15 mm
same,zone of inhibition at 1250 µg/mL,"read-out: Inhibition zone diameter, ATCC 25923, 25 μg (20 μl of 1.25 mg/ml) in 4% P80/Span 80 (1:1), calcium alginate swab, dried overnight",21 mm
same,zone of inhibition at 50 µg/disc,"read-out: Inhibition zone diameter, ATCC 25923, 50 μg, 4% P80/Span 80 ratio 50:50, dried overnight, estimate of diameter",23 mm
same,zone of inhibition at 50 µg/disc,"read-out: Inhibition zone diameter, ATCC 25923, 50 μg, 4% P80/Span 80 ratio 60:40, dried overnight, estimate of diameter",21 mm
same,zone of inhibition at 50 µg/disc,"read-out: Inhibition zone diameter, ATCC 25923, 50 μg, 4% P80/Span 80 ratio 70:30, dried overnight, estimate of diameter",19 mm
same,zone of inhibition at 50 µg/disc,"read-out: Inhibition zone diameter, ATCC 25923, 50 μg, 4% P80/Span 80 ratio 80:20, dried overnight, estimate of diameter",16 mm
same,zone of inhibition at 50 µg/disc,"read-out: Inhibition zone diameter, ATCC 25923, 50 μg, 4% P80/Span 80 ratio 90:10, dried overnight, estimate of diameter",13 mm
same,zone of inhibition at 1250 µg/mL,"read-out: Inhibition zone diameter, ATCC 25923, 20 μl of 1.25 mg/ml oritavancin in 1% poly(ethylene glycol) sorbitol hexaoleate",≤ 15 mm
same,zone of inhibition at 1250 µg/mL,"read-out: Inhibition zone diameter, ATCC 25923, 20 μl of 1.25 mg/ml oritavancin in 5% Brij 30",≤ 15 mm
same,zone of inhibition at 1250 µg/mL,"read-out: Inhibition zone diameter, ATCC 25923, 20 μl of 1.25 mg/ml oritavancin in 5% Merpol SE",≤ 15 mm
same,zone of inhibition at 18000 µg/mL,"read-out: Inhibition zone diameter, ATCC 25923, Oxoid disks, 20 μl of 18 mg/ml oritavancin in 5% P80, stored 30 days at room temperature, prediffusion 6 hours at 4° C.",> 15 mm
same,zone of inhibition at 1250 µg/mL,"read-out: Inhibition zone diameter, MSSA ATCC 25923, 20 μl of 1.25 mg/ml in 4% P80/Span 80 (1:1), cotton swab (FIG. 2), dried overnight",~24 mm
same,zone of inhibition at 1250 µg/mL,"read-out: Inhibition zone diameter, MSSA ATCC 25923, 20 μl of 1.25 mg/ml in 4% P80/Span 80 (1:1), flocked swab (FIG. 2), dried overnight",~24 mm
same,zone of inhibition at 1250 µg/mL,"read-out: Inhibition zone diameter, MSSA ATCC 25923, 20 μl of 1.25 mg/ml in 4% P80/Span 80 (1:1), foam swab (FIG. 2), dried overnight",~26 mm
same,zone of inhibition at 1250 µg/mL,"read-out: Inhibition zone diameter, MSSA ATCC 25923, 20 μl of 1.25 mg/ml in 4% P80/Span 80 (1:1), polyester swab (FIG. 2), dried overnight",~24 mm
same,zone of inhibition at 1250 µg/mL,"read-out: Inhibition zone diameter, MSSA ATCC 25923, 20 μl of 1.25 mg/ml in 4% P80/Span 80 (1:1), rayon swab (FIG. 2), dried overnight",~22 mm
same,zone of inhibition at 180 µg/disc,"read-out: Inhibition zone diameter, MSSA ATCC 25923, Oxoid disk, 180 μg, 2.5% P80, stored 7 days, prediffusion 3 h at 4° C., duplicates",12.5 mm
same,zone of inhibition at 180 µg/disc,"read-out: Inhibition zone diameter, MSSA ATCC 25923, Oxoid disk, 180 μg, 5% P80, stored 7 days, prediffusion 3 h at 4° C., duplicates",12 mm
same,zone of inhibition at 270 µg/disc,"read-out: Inhibition zone diameter, MSSA ATCC 25923, Oxoid disk, 2.5% P80, stored 7 days, prediffusion 3 h at 4° C., duplicates",13 mm
same,zone of inhibition at 270 µg/disc,"read-out: Inhibition zone diameter, MSSA ATCC 25923, Oxoid disk, 5% P80, stored 7 days, prediffusion 3 h at 4° C., duplicates",13 mm
same,zone of inhibition at 360 µg/disc,"read-out: Inhibition zone diameter, MSSA ATCC 25923, Oxoid disk, 360 μg, 2.5% P80, stored 7 days, prediffusion 3 h at 4° C., duplicates",13 mm
same,zone of inhibition at 360 µg/disc,"read-out: Inhibition zone diameter, MSSA ATCC 25923, Oxoid disk, 360 μg, 5% P80, stored 7 days, prediffusion 3 h at 4° C., duplicates",14 mm
same,zone of inhibition at 180 µg/disc,"read-out: Inhibition zone diameter, MSSA ATCC 25923, Whatman #5 disk, 180 μg, 2.5% P80, stored 7 days, prediffusion 3 h at 4° C., duplicates",15.5 mm
same,zone of inhibition at 180 µg/disc,"read-out: Inhibition zone diameter, MSSA ATCC 25923, Whatman #5 disk, 180 μg, 5% P80, stored 7 days, prediffusion 3 h at 4° C., duplicates",14.5 mm
same,zone of inhibition at 270 µg/disc,"read-out: Inhibition zone diameter, MSSA ATCC 25923, Whatman #5 disk, 2.5% P80, stored 7 days, prediffusion 3 h at 4° C., duplicates",15.5 mm
same,zone of inhibition at 270 µg/disc,"read-out: Inhibition zone diameter, MSSA ATCC 25923, Whatman #5 disk, 5% P80, stored 7 days, prediffusion 3 h at 4° C., duplicates",16 mm
same,zone of inhibition at 360 µg/disc,"read-out: Inhibition zone diameter, MSSA ATCC 25923, Whatman #5 disk, 360 μg, 2.5% P80, stored 7 days, prediffusion 3 h at 4° C., duplicates",15.5 mm
same,zone of inhibition at 360 µg/disc,"read-out: Inhibition zone diameter, MSSA ATCC 25923, Whatman #5 disk, 360 μg, 5% P80, stored 7 days, prediffusion 3 h at 4° C., duplicates",16 mm
same,zone of inhibition at 360 µg/disc,"read-out: Zone diameter (mm ± SD), ATCC 25923, 360 μg in 5% P80, Average of experiments, no prediffusion",14.9 ± 0.5 mm
same,zone of inhibition at 360 µg/disc,"read-out: Zone diameter (mm ± SD), ATCC 25923, 360 μg in 5% P80, Average of experiments, prediffusion",17.5 ± 0.6 mm
same,zone of inhibition at 360 µg/disc,"read-out: Zone diameter (mm ± SD), ATCC 25923, 360 μg in 5% P80, Experiment 1, disks stored 14 days, 3 h prediffusion at room temperature",18 mm
same,zone of inhibition at 360 µg/disc,"read-out: Zone diameter (mm ± SD), ATCC 25923, 360 μg in 5% P80, Experiment 2, disks stored 8 days, 3 h prediffusion at room temperature",17 mm

# — patent publication US8815535B2, “Disk diffusion assay for oritavancin” (The Medicines Company, priority 2011, dated 2014)
